Results published in patent US20260234403A1, “PHOTOACTIVE FLUORESCENT COMPOUNDS AND USE THEREOF FOR LABELING OF PROTEINS” (EIKON THERAPEUTICS, INC., priority 2023, published 2026).

Tested on: Wild-type (WT) U2OS cells
Assay: Reduction in nonspecific labeling of WT cells (number of tracks vs PA-JF549)
Assay type: cell-based
Conditions: 100 nM, 1 hr, ratio with PA-JF549 in the numerator
Procedure: Using the methods described in Tables 4a and 4b above, labelling specificity of the compound of Examples 1-28 was measured and compared to PA-JF549. U2OS cells wild type or expressing ER-HaloTag fusion were incubated with PA-JF549 or Examples 1-28 for 1 hr. […] Labeling specificity, as measured by the fold reduction in nonspecific labeling of WT cells, was calculated by number of tracks measured in WT cells for Examples 1-28 compared to the number of tracks in WT cells for PA-JF549, expressed as the ratio with PA-JF549 in the numerator.

[1] = Table 4b, Example 19 with 642 nm light

Compound	Fold reduction in nonspecific labeling [1]	Fold reduction in nonspecific labeling (Table 4a)
1,1′-(6-((2-(2-((6-chlorohexyl)oxy)ethoxy)ethyl)carbamoyl)-2-diazo-3-oxo-2,3-dihydrospiro[indene-1,9′-xanthene]-3′,6′-diyl)bis(azetidine-3-carboxamide [Example 20]	>10	–
CN(C)C(=O)C1CN(c2ccc3c(c2)Oc2cc(N4CC(C(=O)N(C)C)C4)ccc2C32C(=[N+]=[N-])C(=O)c3ccc(C(=O)NCc4ccc(COc5nc(N)nc6nc[nH]c56)cc4)cc32)C1 [Example 5, 1,1′-(6-((4-(((2-amino-7H-purin-6-yl)oxy)methyl)benzyl)carbamoyl)-2-diazo-3-oxo-2,3-dihydrospiro[indene-1,9′-xanthene]-3′,6′-diyl)bis(N,N-dimethylazetidine-3-carboxamide)]	>10	>10
COC(=O)[C@H]1CCN1c1ccc2c(c1)Oc1cc(N3CC[C@@H]3C(=O)OC)ccc1C21C(=[N+]=[N-])C(=O)c2ccc(C(=O)NCCOCCOCCCCCCCl)cc21 [Example 6, Dimethyl 1,1′-(6-((2-(2-((6-chlorohexyl)oxy)ethoxy)ethyl)carbamoyl)-2-diazo-3-oxo-2,3-dihydrospiro[indene-1,9′-xanthene]-3′,6′-diyl)(2R,2′R)-bis(azetidine-2-carboxylate)]	1-5	1-5
[N-]=[N+]=C1C(=O)c2ccc(C(=O)NCCOCCOCCCCCCCl)cc2C12c1ccc(N3CC(O)C3)cc1Oc1cc(N3CC(O)C3)ccc12 [Example 7, N-(2-(2-((6-chlorohexyl)oxy)ethoxy)ethyl)-2-diazo-3′,6′-bis(3-hydroxyazetidin-1-yl)-3-oxo-2,3-dihydrospiro[indene-1,9′-xanthene]-6-carboxamide]	>10	>10
CN(CCOCCOCCCCCCCl)C(=O)c1ccc2c(c1)C1(C(=[N+]=[N-])C2=O)c2ccc(N3CCC3)cc2Oc2cc(N3CCC3)ccc21 [Example 8, 3′,6′-di(azetidin-1-yl)-N-(2-(2-((6-chlorohexyl)oxy)ethoxy)ethyl)-2-diazo-N-methyl-3-oxo-2,3-dihydrospiro[indene-1,9′-xanthene]-6-carboxamide]	5-10	5-10
[N-]=[N+]=C1C(=O)c2ccc(C(=O)NCCOCCOCCCCCCCl)cc2C12c1ccc(N3CC(C(=O)N4CCOCC4)C3)cc1Oc1cc(N3CC(C(=O)N4CCOCC4)C3)ccc12 [Example 9, N-(2-(2-((6-chlorohexyl)oxy)ethoxy)ethyl)-2-diazo-3′,6′-bis(3-(morpholine-4-carbonyl)azetidin-1-yl)-3-oxo-2,3-dihydrospiro[indene-1,9′-xanthene]-6-carboxamide]	>10	>10
[N-]=[N+]=C1C(=O)c2ccc(C(=O)NCCOCCOCCCCCCCl)cc2C12c1ccc(N3CC(C(=O)N4CCCC4)C3)cc1Oc1cc(N3CC(C(=O)N4CCCC4)C3)ccc12 [Example 10, N-(2-(2-((6-chlorohexyl)oxy)ethoxy)ethyl)-2-diazo-3-oxo-3′,6′-bis(3-(pyrrolidine-1-carbonyl)azetidin-1-yl)-2,3-dihydrospiro[indene-1,9′-xanthene]-6-carboxamide]	5-10	5-10
CN1CCN(C(=O)C2CN(c3ccc4c(c3)Oc3cc(N5CC(C(=O)N6CCN(C)CC6)C5)ccc3C43C(=[N+]=[N-])C(=O)c4ccc(C(=O)NCCOCCOCCCCCCCl)cc43)C2)CC1 [Example 11, N-(2-(2-((6-chlorohexyl)oxy)ethoxy)ethyl)-2-diazo-3′,6′-bis(3-(4-methylpiperazine-1-carbonyl)azetidin-1-yl)-3-oxo-2,3-dihydrospiro[indene-1,9′-xanthene]-6-carboxamide]	1-5	1-5
CNC(=O)C1CN(c2ccc3c(c2)Oc2cc(N4CC(C(=O)NC)C4)ccc2C32C(=[N+]=[N-])C(=O)c3ccc(C(=O)NCCOCCOCCCCCCCl)cc32)C1 [Example 12, 1,1′-(6-((2-(2-((6-chlorohexyl)oxy)ethoxy)ethyl)carbamoyl)-2-diazo-3-oxo-2,3-dihydrospiro[indene-1,9′-xanthene]-3′,6′-diyl)bis(N-methylazetidine-3-carboxamide)]	>10	>10
CN(C)C1CN(c2ccc3c(c2)Oc2cc(N4CC(N(C)C)C4)ccc2C32C(=[N+]=[N-])C(=O)c3ccc(C(=O)NCCOCCOCCCCCCCl)cc32)C1 [Example 13, N-(2-(2-((6-chlorohexyl)oxy)ethoxy)ethyl)-2-diazo-3′,6′-bis(3-(dimethylamino)azetidin-1-yl)-3-oxo-2,3-dihydrospiro[indene-1,9′-xanthene]-6-carboxamide]	5-10	5-10
CN(C)C(=O)[C@@H]1CCN1c1ccc2c(c1)Oc1cc(N3CC[C@H]3C(=O)N(C)C)ccc1C21C(=[N+]=[N-])C(=O)c2ccc(C(=O)NCCOCCOCCCCCCCl)cc21 [Example 14, (2S,2′S)-1,1′-(6-((2-(2-((6-chlorohexyl)oxy)ethoxy)ethyl)carbamoyl)-2-diazo-3-oxo-2,3-dihydrospiro[indene-1,9′-xanthene]-3′,6′-diyl)bis(N,N-dimethylazetidine-2-carboxamide)]	>10	>10
[N-]=[N+]=C1C(=O)c2ccc(C(=O)NCCOCCOCCCCCCCl)cc2C12c1ccc(N3CC[C@@H]3CO)cc1Oc1cc(N3CC[C@@H]3CO)ccc12 [Example 15, N-(2-(2-((6-chlorohexyl)oxy)ethoxy)ethyl)-2-diazo-3′,6′-bis((R)-2-(hydroxymethyl)azetidin-1-yl)-3-oxo-2,3-dihydrospiro[indene-1,9′-xanthene]-6-carboxamide]	5-10	5-10
CN(C)C(=O)[C@H]1CCN(c2ccc3c(c2)Oc2cc(N4CC[C@H](C(=O)N(C)C)C4)ccc2C32C(=[N+]=[N-])C(=O)c3ccc(C(=O)NCCOCCOCCCCCCCl)cc32)C1 [Example 16, (3S,3′S)-1,1′-(6-((2-(2-((6-chlorohexyl)oxy)ethoxy)ethyl)carbamoyl)-2-diazo-3-oxo-2,3-dihydrospiro[indene-1,9′-xanthene]-3′,6′-diyl)bis(N,N-dimethylpyrrolidine-3-carboxamide)]	5-10	5-10
[N-]=[N+]=C1C(=O)c2ccc(C(=O)NCCOCCOCCCCCCCl)cc2C12c1ccc(N3C4COCC3C4)cc1Oc1cc(N3C4COCC3C4)ccc12 (centres unmarked) [Example 17, 3′,6′-di(3-oxa-6-azabicyclo[3.1.1]heptan-6-yl)-N-(2-(2-((6-chlorohexyl)oxy)ethoxy)ethyl)-2-diazo-3-oxo-2,3-dihydrospiro[indene-1,9′-xanthene]-6-carboxamide]	1-5	1-5
CN1CC2CC(C1)N2c1ccc2c(c1)Oc1cc(N3C4CC3CN(C)C4)ccc1C21C(=[N+]=[N-])C(=O)c2ccc(C(=O)NCCOCCOCCCCCCCl)cc21 (centres unmarked) [Example 18, N-(2-(2-((6-chlorohexyl)oxy)ethoxy)ethyl)-2-diazo-3′,6′-bis(3-methyl-3,6-diazabicyclo[3.1.1]heptan-6-yl)-3-oxo-2,3-dihydrospiro[indene-1,9′-xanthene]-6-carboxamide]	>10	>10
CN(C)C(=O)C1CN(c2ccc3c(c2)[Si](C)(C)c2cc(N4CC(C(=O)N(C)C)C4)ccc2C32C(=[N+]=[N-])C(=O)c3ccc(C(=O)NCCOCCOCCCCCCCl)cc32)C1 [Example 19, 1,1′-(6′-((2-(2-((6-chlorohexyl)oxy)ethoxy)ethyl)carbamoyl)-2′-diazo-5,5-dimethyl-3′-oxo-2′,3′-dihydro-5H-spiro[dibenzo[b,e]siline-10,1′-indene]-3,7-diyl)bis(N,N-dimethylazetidine-3-carboxamide)]	>10	–
O=C1OC2(c3ccc(N4CCC4)cc3Oc3cc(N4CCC4)ccc32)c2cc(NCCOCCOCCCCCCCl)ccc21 [Example 21, 3′,6′-di(azetidin-1-yl)-6-((2-(2-((6-chlorohexyl)oxy)ethoxy)ethyl)amino)-3H-spiro[isobenzofuran-1,9′-xanthen]-3-one]	5-10	–
[N-]=[N+]=C1C(=O)c2ccc(NC(=O)CCOCCOCCCCCCCl)cc2C12c1ccc(N3CCC3)cc1Oc1cc(N3CCC3)ccc12 [Example 22, 3-(2-((6-chlorohexyl)oxy)ethoxy)-N-(3′,6′-di(azetidin-1-yl)-2-diazo-3-oxo-2,3-dihydrospiro[indene-1,9′-xanthen]-6-yl)propanamide]	5-10	–
[N-]=[N+]=C1C(=O)c2ccc(CCCCOCCOCCCCCCCl)cc2C12c1ccc(N3CCC3)cc1Oc1cc(N3CCC3)ccc12 [Example 24, 3′,6′-di(azetidin-1-yl)-6-(4-(2-((6-chlorohexyl)oxy)ethoxy)butyl)-2-diazospiro[indene-1,9′-xanthen]-3(2H)-one]	1-5	–
[N-]=[N+]=C1C(=O)c2ccc(OCCCOCCOCCCCCCCl)cc2C12c1ccc(N3CCC3)cc1Oc1cc(N3CCC3)ccc12 [Example 25, 3′,6′-di(azetidin-1-yl)-6-(3-(2-((6-chlorohexyl)oxy)ethoxy)propoxy)-2-diazospiro[indene-1,9′-xanthen]-3(2H)-one]	<1	–
CN(CCOCCOCCCCCCCl)Cc1ccc2c(c1)C1(C(=[N+]=[N-])C2=O)c2ccc(N3CCC3)cc2Oc2cc(N3CCC3)ccc21 [Example 26, 3′,6′-di(azetidin-1-yl)-6-(((2-(2-((6-chlorohexyl)oxy)ethoxy)ethyl)(methyl)amino)methyl)-2-diazospiro[indene-1,9′-xanthen]-3(2H)-one]	<1	–
